The values that follow come from ChEMBL document CHEMBL5678818, “Discovery of potent SOS1 inhibitors that block RAS activation via disruption of the RAS-SOS1 interaction” (Proc Natl Acad Sci U S A, 2019).

Structures are written as SMILES.

In experiment [1] the target is Calcium/calmodulin-dependent protein kinase type 1 (Homo sapiens) (UniProt Q14012). In words: Inhibition of CAMK1 (unknown origin) assessed as residual activity at 1000 nM by KINOMEscan analysis relative to control.
In experiment [2] the target is T1, Megakaryocyte-associated tyrosine-protein kinase (Homo sapiens) (UniProt P42679).
T1 sequence (whole entry): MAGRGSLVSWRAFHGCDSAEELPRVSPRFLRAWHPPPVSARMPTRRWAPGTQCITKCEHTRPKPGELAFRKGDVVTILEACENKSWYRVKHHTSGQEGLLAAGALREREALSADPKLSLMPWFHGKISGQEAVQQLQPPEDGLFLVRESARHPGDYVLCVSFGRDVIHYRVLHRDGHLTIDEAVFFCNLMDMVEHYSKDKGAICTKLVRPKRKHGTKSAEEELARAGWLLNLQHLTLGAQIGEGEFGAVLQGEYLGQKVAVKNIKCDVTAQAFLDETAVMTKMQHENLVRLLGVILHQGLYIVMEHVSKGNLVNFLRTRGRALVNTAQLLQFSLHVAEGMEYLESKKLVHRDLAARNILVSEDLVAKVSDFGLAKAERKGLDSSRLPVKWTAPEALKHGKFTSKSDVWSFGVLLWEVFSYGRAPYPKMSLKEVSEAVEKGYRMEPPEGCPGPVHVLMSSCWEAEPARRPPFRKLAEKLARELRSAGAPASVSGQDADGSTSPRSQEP
In words: Inhibition of CTK (unknown origin) assessed as residual activity at 1000 nM by KINOMEscan analysis relative to control.

The target of experiment [3] is Death-associated protein kinase 1 (Homo sapiens) (UniProt P53355). Kind of experiment: Inhibition of DAPK1 (unknown origin) assessed as residual activity at 1000 nM by KINOMEscan analysis relative to control.
Chain of Death-associated protein kinase 1 (Homo sapiens) (P53355 whole entry, looked up): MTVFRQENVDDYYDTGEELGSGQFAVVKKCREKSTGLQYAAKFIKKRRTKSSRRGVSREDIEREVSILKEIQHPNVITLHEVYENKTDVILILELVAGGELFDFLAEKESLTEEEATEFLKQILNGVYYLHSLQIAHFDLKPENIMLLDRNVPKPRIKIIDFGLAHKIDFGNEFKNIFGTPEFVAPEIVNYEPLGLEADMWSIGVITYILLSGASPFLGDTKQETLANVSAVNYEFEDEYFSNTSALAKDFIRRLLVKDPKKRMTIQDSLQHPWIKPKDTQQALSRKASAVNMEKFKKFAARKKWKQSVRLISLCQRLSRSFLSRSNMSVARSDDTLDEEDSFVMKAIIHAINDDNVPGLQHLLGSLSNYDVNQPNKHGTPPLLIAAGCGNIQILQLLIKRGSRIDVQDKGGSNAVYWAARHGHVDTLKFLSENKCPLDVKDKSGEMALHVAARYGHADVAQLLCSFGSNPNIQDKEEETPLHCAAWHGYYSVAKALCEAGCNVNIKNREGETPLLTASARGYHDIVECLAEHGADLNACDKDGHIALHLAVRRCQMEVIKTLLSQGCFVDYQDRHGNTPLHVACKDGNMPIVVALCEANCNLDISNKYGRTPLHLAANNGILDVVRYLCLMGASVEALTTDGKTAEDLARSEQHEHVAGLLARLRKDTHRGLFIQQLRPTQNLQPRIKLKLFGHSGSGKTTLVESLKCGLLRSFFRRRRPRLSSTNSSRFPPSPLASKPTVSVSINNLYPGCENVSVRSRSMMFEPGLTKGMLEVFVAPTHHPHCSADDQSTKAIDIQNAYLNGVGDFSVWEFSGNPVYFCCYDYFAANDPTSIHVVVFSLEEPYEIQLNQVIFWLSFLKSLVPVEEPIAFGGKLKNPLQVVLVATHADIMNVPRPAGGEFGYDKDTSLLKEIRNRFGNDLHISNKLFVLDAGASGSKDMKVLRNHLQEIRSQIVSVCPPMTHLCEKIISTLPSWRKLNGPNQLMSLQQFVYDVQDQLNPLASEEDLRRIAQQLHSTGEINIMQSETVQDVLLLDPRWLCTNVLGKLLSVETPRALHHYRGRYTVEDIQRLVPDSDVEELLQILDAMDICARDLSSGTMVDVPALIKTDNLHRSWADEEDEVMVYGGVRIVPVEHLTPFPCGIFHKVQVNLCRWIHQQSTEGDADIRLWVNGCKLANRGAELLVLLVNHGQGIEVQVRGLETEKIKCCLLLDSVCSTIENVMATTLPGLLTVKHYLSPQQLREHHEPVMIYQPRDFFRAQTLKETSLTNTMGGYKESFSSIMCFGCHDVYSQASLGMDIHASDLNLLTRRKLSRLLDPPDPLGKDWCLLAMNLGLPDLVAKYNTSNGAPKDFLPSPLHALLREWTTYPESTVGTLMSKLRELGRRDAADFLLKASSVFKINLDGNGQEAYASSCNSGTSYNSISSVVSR
Experiment [4] has as its system Epidermal growth factor receptor (Homo sapiens), P00533 [UNDEFINED MUTATION]. In words: Inhibition of EGFR E746-A750del mutant (unknown origin) assessed as residual activity at 1000 nM by KINOMEscan analysis relative to control.
Experiment [5] deals with T2, Inhibitor of nuclear factor kappa-B kinase subunit alpha (Homo sapiens) (UniProt O15111).
T2 sequence (whole entry): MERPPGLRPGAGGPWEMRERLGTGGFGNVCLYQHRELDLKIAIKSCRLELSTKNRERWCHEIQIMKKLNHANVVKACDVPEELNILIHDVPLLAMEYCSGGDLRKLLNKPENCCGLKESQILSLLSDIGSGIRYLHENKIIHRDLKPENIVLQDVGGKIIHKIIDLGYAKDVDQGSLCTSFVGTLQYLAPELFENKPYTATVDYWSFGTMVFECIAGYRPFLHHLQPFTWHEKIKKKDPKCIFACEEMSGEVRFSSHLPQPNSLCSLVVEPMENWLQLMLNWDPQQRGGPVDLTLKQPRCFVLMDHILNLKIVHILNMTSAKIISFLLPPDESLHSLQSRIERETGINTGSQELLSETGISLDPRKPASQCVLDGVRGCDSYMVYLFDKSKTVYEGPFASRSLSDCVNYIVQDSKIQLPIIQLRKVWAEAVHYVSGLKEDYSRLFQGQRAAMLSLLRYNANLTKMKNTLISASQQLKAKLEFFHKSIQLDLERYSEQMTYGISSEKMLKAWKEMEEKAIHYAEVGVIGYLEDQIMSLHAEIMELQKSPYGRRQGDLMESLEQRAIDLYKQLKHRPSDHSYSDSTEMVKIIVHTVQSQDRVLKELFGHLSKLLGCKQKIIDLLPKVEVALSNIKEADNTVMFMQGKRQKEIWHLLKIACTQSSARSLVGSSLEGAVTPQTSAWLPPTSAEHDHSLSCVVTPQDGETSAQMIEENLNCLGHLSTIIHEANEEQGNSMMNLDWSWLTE
Kind of experiment: Inhibition of IKK-alpha (unknown origin) assessed as residual activity at 1000 nM by KINOMEscan analysis relative to control.

Experiment [6] has as its target T3, Serine/threonine-protein kinase PLK4 (Homo sapiens) (UniProt O00444).
T3 sequence (whole entry): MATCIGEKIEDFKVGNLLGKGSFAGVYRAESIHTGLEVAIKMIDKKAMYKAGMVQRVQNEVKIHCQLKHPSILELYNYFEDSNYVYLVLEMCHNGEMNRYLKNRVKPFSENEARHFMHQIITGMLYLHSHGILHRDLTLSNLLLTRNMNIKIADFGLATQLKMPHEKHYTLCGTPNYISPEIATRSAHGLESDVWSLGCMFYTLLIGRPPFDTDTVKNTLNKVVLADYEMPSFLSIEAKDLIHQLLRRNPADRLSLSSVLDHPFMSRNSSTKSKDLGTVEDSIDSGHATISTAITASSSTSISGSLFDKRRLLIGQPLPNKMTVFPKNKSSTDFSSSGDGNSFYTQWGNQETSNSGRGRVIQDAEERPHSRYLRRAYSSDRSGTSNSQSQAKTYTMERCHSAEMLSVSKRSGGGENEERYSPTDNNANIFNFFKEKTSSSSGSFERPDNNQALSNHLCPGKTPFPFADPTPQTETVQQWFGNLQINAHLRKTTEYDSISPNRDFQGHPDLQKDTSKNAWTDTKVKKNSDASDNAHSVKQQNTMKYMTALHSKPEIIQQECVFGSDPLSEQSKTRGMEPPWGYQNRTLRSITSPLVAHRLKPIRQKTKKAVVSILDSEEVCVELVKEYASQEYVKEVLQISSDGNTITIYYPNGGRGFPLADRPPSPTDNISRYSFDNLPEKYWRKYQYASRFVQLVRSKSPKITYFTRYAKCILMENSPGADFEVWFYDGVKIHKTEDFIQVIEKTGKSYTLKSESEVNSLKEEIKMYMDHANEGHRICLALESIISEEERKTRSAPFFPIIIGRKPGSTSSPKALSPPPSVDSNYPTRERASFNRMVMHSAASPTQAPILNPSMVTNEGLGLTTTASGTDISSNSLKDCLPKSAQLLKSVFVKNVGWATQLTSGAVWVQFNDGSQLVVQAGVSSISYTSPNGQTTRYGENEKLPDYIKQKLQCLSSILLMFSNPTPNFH
In words: Inhibition of PLK4 (unknown origin) assessed as residual activity at 1000 nM by KINOMEscan analysis relative to control.

Experiment [7] concerns the target Serine/threonine-protein kinase tousled-like 2 (Homo sapiens) (UniProt Q86UE8). Kind of experiment: Inhibition of TLK2 (unknown origin) assessed as residual activity at 1000 nM by KINOMEscan analysis relative to control.

Chain of Epidermal growth factor receptor (Homo sapiens), P00533 [UNDEFINED MUTATION] (P00533 whole entry, looked up, stated change not applied): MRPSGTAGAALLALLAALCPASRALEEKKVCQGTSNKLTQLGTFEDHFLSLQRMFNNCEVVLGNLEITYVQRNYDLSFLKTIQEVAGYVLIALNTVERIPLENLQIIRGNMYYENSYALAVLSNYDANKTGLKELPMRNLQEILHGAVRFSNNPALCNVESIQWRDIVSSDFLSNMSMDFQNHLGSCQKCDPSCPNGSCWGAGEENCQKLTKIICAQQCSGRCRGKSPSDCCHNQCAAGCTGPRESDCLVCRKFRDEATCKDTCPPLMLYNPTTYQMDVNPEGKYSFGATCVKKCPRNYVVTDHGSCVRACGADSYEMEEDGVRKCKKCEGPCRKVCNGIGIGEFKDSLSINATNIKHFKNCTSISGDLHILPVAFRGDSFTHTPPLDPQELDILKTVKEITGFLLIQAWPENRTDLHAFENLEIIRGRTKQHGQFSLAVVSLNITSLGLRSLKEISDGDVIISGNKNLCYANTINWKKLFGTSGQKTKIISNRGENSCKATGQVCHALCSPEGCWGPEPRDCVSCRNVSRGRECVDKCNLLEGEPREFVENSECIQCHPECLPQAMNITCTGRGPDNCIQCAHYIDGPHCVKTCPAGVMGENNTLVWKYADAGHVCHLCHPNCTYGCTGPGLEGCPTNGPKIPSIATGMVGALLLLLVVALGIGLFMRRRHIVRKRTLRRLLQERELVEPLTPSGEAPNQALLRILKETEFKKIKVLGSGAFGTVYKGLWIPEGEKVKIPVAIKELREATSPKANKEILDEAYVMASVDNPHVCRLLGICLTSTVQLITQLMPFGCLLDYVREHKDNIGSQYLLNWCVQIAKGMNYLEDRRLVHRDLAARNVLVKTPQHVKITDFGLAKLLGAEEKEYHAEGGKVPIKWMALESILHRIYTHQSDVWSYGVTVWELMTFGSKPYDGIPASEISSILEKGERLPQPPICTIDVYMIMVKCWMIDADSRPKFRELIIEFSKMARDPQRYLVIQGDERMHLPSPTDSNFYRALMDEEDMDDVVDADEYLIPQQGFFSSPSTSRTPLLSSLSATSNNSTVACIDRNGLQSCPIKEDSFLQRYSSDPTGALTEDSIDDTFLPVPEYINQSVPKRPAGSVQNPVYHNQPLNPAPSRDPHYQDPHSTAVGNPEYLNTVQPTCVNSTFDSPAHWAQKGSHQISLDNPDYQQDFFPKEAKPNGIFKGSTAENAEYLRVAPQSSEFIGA
Chain of Serine/threonine-protein kinase tousled-like 2 (Homo sapiens) (Q86UE8 whole entry, looked up): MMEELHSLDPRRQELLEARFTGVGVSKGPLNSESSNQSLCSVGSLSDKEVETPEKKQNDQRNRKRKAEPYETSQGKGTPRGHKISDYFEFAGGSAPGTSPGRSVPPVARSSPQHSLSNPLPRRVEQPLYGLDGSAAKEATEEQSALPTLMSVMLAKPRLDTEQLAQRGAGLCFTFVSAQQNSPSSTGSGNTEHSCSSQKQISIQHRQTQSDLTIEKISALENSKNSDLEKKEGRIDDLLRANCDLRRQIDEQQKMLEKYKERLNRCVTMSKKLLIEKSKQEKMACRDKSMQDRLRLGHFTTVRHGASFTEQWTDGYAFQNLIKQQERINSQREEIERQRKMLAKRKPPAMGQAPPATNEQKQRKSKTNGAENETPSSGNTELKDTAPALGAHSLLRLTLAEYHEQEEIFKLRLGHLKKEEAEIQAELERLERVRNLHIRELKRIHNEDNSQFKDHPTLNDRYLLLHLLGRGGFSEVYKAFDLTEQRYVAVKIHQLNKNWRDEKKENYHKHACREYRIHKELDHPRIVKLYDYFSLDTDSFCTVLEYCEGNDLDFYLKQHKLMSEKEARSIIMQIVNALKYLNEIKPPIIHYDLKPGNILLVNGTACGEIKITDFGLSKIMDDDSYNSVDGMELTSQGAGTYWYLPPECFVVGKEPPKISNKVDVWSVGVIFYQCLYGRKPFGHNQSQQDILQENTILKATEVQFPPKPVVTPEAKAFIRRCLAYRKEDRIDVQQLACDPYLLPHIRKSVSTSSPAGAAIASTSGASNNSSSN
Chain of Calcium/calmodulin-dependent protein kinase type 1 (Homo sapiens) (Q14012 whole entry, looked up): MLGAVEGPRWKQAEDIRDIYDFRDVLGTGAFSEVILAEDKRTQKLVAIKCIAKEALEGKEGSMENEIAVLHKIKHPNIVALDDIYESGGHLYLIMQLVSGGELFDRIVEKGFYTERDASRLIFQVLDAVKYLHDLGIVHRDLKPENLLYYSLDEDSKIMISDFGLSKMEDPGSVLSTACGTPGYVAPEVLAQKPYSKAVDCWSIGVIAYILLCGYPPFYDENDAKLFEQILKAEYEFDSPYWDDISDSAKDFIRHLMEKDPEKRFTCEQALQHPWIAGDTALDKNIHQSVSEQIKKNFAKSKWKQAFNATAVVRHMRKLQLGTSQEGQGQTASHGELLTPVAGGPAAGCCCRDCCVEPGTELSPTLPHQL

Take `COc1cc2nc(C)nc(N[C@H](C)c3cccc(-c4cn[nH]c4)c3)c2cc1OC`: the Activity is 73% in experiment [1]; 99% in experiment [2]; 82% in experiment [3]; 100% in experiment [4]; 81% in experiment [5]; 100% in experiment [6]. In addition, the Activity in experiment [7] amounted to 83%.
Turning to `COc1cc2ncnc(N[C@H](C)c3cccc4ccccc34)c2cc1OC`, the Activity in experiment [1] stood at 100%; in experiment [2], 62%; in experiment [3], 100%; in experiment [4], 5.9%; in experiment [5], 70%; in experiment [6] it was 96%. For the same molecule, in experiment [7], the Activity is 77%.
